Test results: patent US20150297672A1, “Alpha- and gamma-MSH analogues” (TXP Pharma GmbH, priority 2014, published 2015)

How the values were obtained:
human MC1r [1] = target: T1, human MC1r (Homo sapiens, UniProt Q01726); test: Test 3: receptor efficacy, cAMP enzyme immunoassay in stably transfected HEK cells expressing the human MC1r; format: cell-based; design: expressed in transfected cells; conditions: for Emax: HEK293, IBMX present, read-out: maximal efficacy Emax (max efficacy expressed as percent of αMSH); for EC50: IBMX present
T1 sequence (Q01726 whole entry): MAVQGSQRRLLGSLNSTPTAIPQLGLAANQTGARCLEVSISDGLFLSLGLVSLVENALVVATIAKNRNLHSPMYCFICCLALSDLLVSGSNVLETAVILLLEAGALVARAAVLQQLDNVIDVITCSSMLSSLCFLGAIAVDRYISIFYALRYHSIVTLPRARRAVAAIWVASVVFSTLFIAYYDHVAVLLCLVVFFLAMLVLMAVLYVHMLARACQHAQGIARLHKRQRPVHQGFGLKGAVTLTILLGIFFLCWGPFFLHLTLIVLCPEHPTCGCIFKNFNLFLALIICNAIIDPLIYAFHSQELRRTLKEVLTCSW
Excerpt: The immune modulating effects of melanocortins are mediated through MC1r and/or MC3r stimulation on immune competent cells in tissues, organs and plasma. MC1r and/or MC3r are expressed in immune competent cells including monocytes, macrophages, neutrophils t-cells and dendritic cells. Stimulation of the MCr1 and/or MC3r is associated with attenuation of cytokine production and activation of pro-resolving effects. The binding affinity and the receptor efficacy (alternative expression is potency) of a given melanocortin together, in some embodiments, makes up the overall efficacy of a given compound.
Alternatively MCR1 receptor efficacy was tested in stably transfected HEK cells expressing the human MC1r. Cells were grown in Dulbecco's modified Eagle's medium 1885 supplemented with 10% fetal calf serum, 2 mm glutamine, and 0.01 mg/ml gentamicin. The expression plasmids containing the cDNAs encoding the wild-type or the mutated receptors were expressed after transfection according to the calcium phosphate precipitation method. The cells were kept frozen until the experiments where the cells was grown in RPMI 1640 medium supplemented with 2 mm 1-glutamine adjusted to contain 1.5 g/liter sodium bicarbonate, 4.5 g/liter glucose, 10 mm HEPES, 1.0 mm sodium pyruvate, and 10% fetal bovine serum.
Cells (2.5×10^5 cells per well) were incubated for 15 min at 37° C. in 1 ml of freshly prepared binding buffer supplemented with 5.10-4 M of the non-specific phosphodiesterase inhibitor 3-Isobutyl-1-methylxanthine (IBMX), 40 μg/ml bacitracin, and various concentrations of test compound. After incubation, cells were placed on ice, medium was removed, and cells lysed. Measurement of cAMP in the samples was conducted by use of a commercial cAMP Enzyme Immunoassay kit from Cayman Chemicals (Cat. No 581001). All cAMP concentrations were expressed relative to the total number of cells in the individual samples.

human MC1r [2] = target: T1, human MC1r; test: Test 2: receptor efficacy, cAMP production (HTRF) in CHO-K1 cells expressing MC1r; conditions: nM of cAMP, IBMX 1 mM
Method: CHO-Kl cells expressing either the MC1r or the MC3r grown in media without antibiotic were detached by gentle flushing with PBS-EDTA (5 mM EDTA), recovered by centrifugation and resuspended in assay buffer (KRH: 5 mM KCl, 1.25 mM MgSO4, 124 mM NaCl, 25 mM HEPES, 13.3 mM Glucose, 1.25 mM KH2PO4, 1.45 mM CaC12, 0.5 g/1 BSA).
12 μl of cells were mixed with 12 μl of the test compound at increasing concentrations in 96 wells plates and then incubated 30 min at room temperature. cAMP production was determined after addition of a lysis buffer and 1 hour incubation, by use of competitive immunoassay using cryptate-labeled anti-cAMP and d2-labeled cAMP (HTRF kit from CisBio) with Delta F percentage values calculated according to the manufacturer specification. Dose response curves were performed in parallel with test compounds, and reference compounds.
The HTRF technology is a titration assay based on a competition between labeled cAMP (exogenous) and cAMP produced by the cell after activation of the MCr. The dynamic range of the assay was 3-4 fold meaning that the linear range (which enables conversion from raw data to nM of cAMP) is within that range.
Data is presented as mean values.

[3] = test system: normal human lung fibroblasts (NHLF); conditions: TGFβ1-induced NHLF, at higher doses; U.S. provisional application 61/785,631; cited from earlier work

Compound | Emax (human MC1r [1]) | EC50 (human MC1r [1]) | maximal efficacy (Emax) (human MC1r [2]) | effect on ECM collagen [3]
CCCC[C@H](NC(=O)[C@H](CO)NC(=O)[C@H](Cc1ccc(O)cc1)NC(=O)[C@H](CO)NC(=O)[C@H](CCCCN)NC(=O)[C@H](CCCCN)NC(=O)[C@H](CCCCN)NC(=O)[C@H](CCCCN)NC(=O)[C@H](CCCCN)NC(=O)[C@H](CCCCN)NC(C)=O)C(=O)N[C@@H](CCC(=O)O)C(=O)N[C@@H](Cc1c[nH]cn1)C(=O)N[C@H](Cc1ccccc1)C(=O)N[C@@H](CCCNC(=N)N)C(=O)N[C@@H](Cc1c[nH]c2ccccc12)C(=O)NCC(=O)N[C@@H](CCCCN)C(=O)N1CCC[C@H]1C(=O)N[C@H](C(N)=O)C(C)C [Ac(Lys)6-NDP-αMSH, Ac(Lys)6-Ser-Tyr-Ser-Nle Glu-His-(D-Phe)-Arg-Trp-Gly-Lys-Pro-Val-NH2] | 62 ± 8% | 1.35 nM |  | 
CSCC[C@H](NC(=O)[C@H](CO)NC(=O)[C@H](Cc1ccc(O)cc1)NC(=O)[C@H](CO)NC(=O)[C@H](CCCCN)NC(=O)[C@H](CCCCN)NC(=O)[C@H](CCCCN)NC(=O)[C@H](CCCCN)NC(=O)[C@H](CCCCN)NC(=O)[C@H](CCCCN)NC(C)=O)C(=O)N[C@@H](CCC(=O)O)C(=O)N[C@@H](Cc1c[nH]cn1)C(=O)N[C@@H](Cc1ccccc1)C(=O)N[C@@H](CCCNC(=N)N)C(=O)N[C@@H](Cc1c[nH]c2ccccc12)C(=O)NCC(=O)N[C@@H](CCCCN)C(=O)N1CCC[C@H]1C(=O)N[C@H](C(N)=O)C(C)C [Ac(Lys)6-αMSH] | 72 ± 5% | 2.12 nM | ~3 nM | 
CSCC[C@H](NC(=O)[C@H](CO)NC(=O)[C@H](Cc1ccc(O)cc1)NC(=O)[C@H](CO)NC(=O)[C@H](CCCCNC(=O)[C@H](CCCCN)NC(=O)[C@H](CCCCN)NC(C)=O)NC(C)=O)C(=O)N[C@@H](CCC(=O)O)C(=O)N[C@@H](Cc1c[nH]cn1)C(=O)N[C@@H](Cc1ccccc1)C(=O)N[C@@H](CCCNC(=N)N)C(=O)N[C@@H](Cc1c[nH]c2ccccc12)C(=O)NCC(=O)N[C@@H](CCCCN)C(=O)N1CCC[C@H]1C(=O)N[C@H](C(N)=O)C(C)C [α-MSH analogue #1] |  |  | ~3 nM | 
ACTH: Adrenocorticotropic hormone, the native ligand to the type 2 receptor (MC2r) (SYSMEHFRWGKPVGKKRRPVKVYPNGAEDESAEAFPLEF; Corticotropin; UniProt P01189 138-176, looked up) |  |  |  | statistically significant reduction in ECM collagen
